# Measured values as given in patent US20140221286A1, “SODIUM CHANNEL BLOCKERS REDUCE GLUCAGON SECRETION” (Gilead Sciences, Inc., priority 2011, published 2014).
# Tests used:
# rat pancreatic islets = experiment: Glucagon secretion in rat pancreatic islets under low glucose (3 mM), ELISA; format: cell-based; settings: 3 mM glucose
# human pancreatic islets = experiment: Veratridine-induced glucagon secretion in human pancreatic islets; format: cell-based; settings: veratridine 30 μM
# ZDF diabetic rats = experiment: ZDF diabetic rats, animal model of type 2 diabetes; format: in vivo, rat; settings: for water consumption (surrogate marker for diabetes) / HbA1c levels versus vehicle group / fasting plasma glucose levels versus vehicle: in Purina 5008 diet; for water consumption (surrogate marker for diabetes): during diabetes development; for HbA1c levels versus vehicle group: weeks 4, 6 and 8; for fasting plasma glucose levels versus vehicle: weeks 7 and 9
# Experimental: All sections from fluorescent staining were viewed under fluorescent microscope and the stained areas were digitally photographed at a magnification of 20×. The images taken at different magnification were normalized using the standard ruler grade (S1 Finder Graticule, 68040, Electron Microscopy Science, Hatfield, Pa.). Analyses of islet areas and entire section areas were performed using ImageJ software (NIH, MD). Three sections from each of 6 animals per treatment group were analyzed. Data are presented as mean±SEM. *, p<0.05; **, p<0.01; ***, p<0.001 by One-way ANOVA.
# Male ZDF Leprfa/Crl rats were received at 5 weeks of age from Charles River Laboratories Inc., (Wilmington, Mass.) and were acclimated until study initiation at 6 weeks of age. Drugs were given to the animals in Purina 5008 for 10 weeks at doses approximately 170 mg/kg/d of ranolazine, 0.6 mg/kg/d of compound A and 30 mg/kg/d of sitagliptin as positive control. Fasting (12-14 h fast) and non-fasting blood samples were obtained by tail-nick and blood glucose was measured using a Freestyle Lite glucose meter (Abbott Laboratories Inc., Abbott Park, Ill.). HbA1c levels were monitored every other week. Twenty four hour water consumption as surrogate marker for diabetes for each rat was measured at least once per week.
# hNaV1.3 = molecular target: T1, hNaV1.3 (Homo sapiens, UniProt Q9NY46); experiment: Voltage-dependent block (VDB) of hNaV1.3, QPatch whole-cell voltage-clamp in HEK-293 cells; format: cell-based; settings: 8 s prepulse to -55 mV; at a given concentration (not given)
# T1 construct: (Vanderbilt University, Nashville, Tenn.)
# Experimental: (§1) Voltage-dependent block (VDB) of […] was determined by whole-cell voltage-clamp recordings of sodium current using a QPatch 16× automated electrophysiological system in HEK 293 cells overexpressing Nav 1.3 and Nav 1.7 sodium channels, respectively. VDB of peak current was measured using an 8 s conditioning prepulse (to -55 mV for NaV1.3 and to −60 mV for […]) followed by a test pulse (0 mV, 20 ms). Currents are normalized to the peak current recorded in the absence of drug and expressed as percent inhibition. […] Glucagon secretion in the cells was induced by the treatment with veratridine at 30 μM for 1 hour in Krebs-Ringer buffer containing 0.1% BSA. Percent inhibition of glucagon secretion by Na channel blockers was calculated from the reduction of veratridine-induced glucagon secretion in the absence of drug.
# (Vanderbilt University, Nashville, Tenn.). The cells were continuously maintained in a humidified, 5% CO2 atmosphere at 37° C. in DMEM high glucose growth medium supplemented with 10% FBS, 2 mM L-glutamine, 100 U/mL penicillin, 100 μg/mL streptomycin, 1 mg/mL G418 and 3 μg/mL puromycin.
# (§2) Whole-cell voltage-clamp recordings were used to measure the activity of test compounds against hNaV1.3 and hNaV1.7. Sodium currents were recorded at room temperature using a QPatch 16× automated electrophysiological system (Sophion Bioscience, Copenhagen, Denmark). Cells were washed with PBS and then incubated with Detachin for 2 minutes at room temperature. Cells were then resuspended in growth media, pelleted by centrifugation and resuspended in CHO-S-SFM II serum free media supplemented with 100 U/mL penicillin, 100 μg/mL streptomycin and 10 mM HEPES. The cells were allowed to recover for 30 min at room temperature with constant stirring and then loaded into the QPatch cell holder.
# (§3) The cells were loaded into primed single hole (2 MΩ) large QPlates and the whole-cell configuration was established using the default protocol. Cells were allowed to stabilize for 10 min after establishment of the whole-cell configuration before current was measured. […] All currents are low-pass Bessel filtered at 5 kHz and digitized at 50 kHz.
# (§4) Specific voltage-clamp protocols assessing voltage-dependent block (VDB, also termed state-dependent block) are used. VDB of peak current was measured following an 8 s conditioning prepulse (to -55 mV for NaV1.3 and to −60 mV for NaV1.7) followed by a test pulse to 0 mV (20 ms). An interpulse (−120 mV, 10 ms) was used to recover non-drug bound channels from fast inactivation. The prepulse potential was determined by the steady-state inactivation curves for NaV1.3 and NaV1.7. […] Multiple applications of drug were used to ensure complete solution exchange and the cells were allowed to stabilize in the drug containing solution for two minutes. Currents were normalized to the peak current recorded in the absence of drug and expressed as percent inhibition.
# hNaV1.7 = hNaV1.7 (Homo sapiens, UniProt Q15858); experiment: Voltage-dependent block (VDB) of hNaV1.7, QPatch whole-cell voltage-clamp in HEK-293 cells; format: cell-based; settings: 8 s prepulse to −60 mV; at a given concentration (not given)
# Experimental: as §1
# The cells were continuously maintained in a humidified, 5% CO2 atmosphere at 37° C. in MEM growth medium supplemented with 10% FBS, 2 mM L-glutamine, 100 U/mL penicillin, 100 μg/mL streptomycin, 0.6 mg/mL G418 and 2 μg/mL blastocydin.
# as §2, §3, §4
# hNaV1.7, sequence (Q15858 1-1977 isoform Q15858-3): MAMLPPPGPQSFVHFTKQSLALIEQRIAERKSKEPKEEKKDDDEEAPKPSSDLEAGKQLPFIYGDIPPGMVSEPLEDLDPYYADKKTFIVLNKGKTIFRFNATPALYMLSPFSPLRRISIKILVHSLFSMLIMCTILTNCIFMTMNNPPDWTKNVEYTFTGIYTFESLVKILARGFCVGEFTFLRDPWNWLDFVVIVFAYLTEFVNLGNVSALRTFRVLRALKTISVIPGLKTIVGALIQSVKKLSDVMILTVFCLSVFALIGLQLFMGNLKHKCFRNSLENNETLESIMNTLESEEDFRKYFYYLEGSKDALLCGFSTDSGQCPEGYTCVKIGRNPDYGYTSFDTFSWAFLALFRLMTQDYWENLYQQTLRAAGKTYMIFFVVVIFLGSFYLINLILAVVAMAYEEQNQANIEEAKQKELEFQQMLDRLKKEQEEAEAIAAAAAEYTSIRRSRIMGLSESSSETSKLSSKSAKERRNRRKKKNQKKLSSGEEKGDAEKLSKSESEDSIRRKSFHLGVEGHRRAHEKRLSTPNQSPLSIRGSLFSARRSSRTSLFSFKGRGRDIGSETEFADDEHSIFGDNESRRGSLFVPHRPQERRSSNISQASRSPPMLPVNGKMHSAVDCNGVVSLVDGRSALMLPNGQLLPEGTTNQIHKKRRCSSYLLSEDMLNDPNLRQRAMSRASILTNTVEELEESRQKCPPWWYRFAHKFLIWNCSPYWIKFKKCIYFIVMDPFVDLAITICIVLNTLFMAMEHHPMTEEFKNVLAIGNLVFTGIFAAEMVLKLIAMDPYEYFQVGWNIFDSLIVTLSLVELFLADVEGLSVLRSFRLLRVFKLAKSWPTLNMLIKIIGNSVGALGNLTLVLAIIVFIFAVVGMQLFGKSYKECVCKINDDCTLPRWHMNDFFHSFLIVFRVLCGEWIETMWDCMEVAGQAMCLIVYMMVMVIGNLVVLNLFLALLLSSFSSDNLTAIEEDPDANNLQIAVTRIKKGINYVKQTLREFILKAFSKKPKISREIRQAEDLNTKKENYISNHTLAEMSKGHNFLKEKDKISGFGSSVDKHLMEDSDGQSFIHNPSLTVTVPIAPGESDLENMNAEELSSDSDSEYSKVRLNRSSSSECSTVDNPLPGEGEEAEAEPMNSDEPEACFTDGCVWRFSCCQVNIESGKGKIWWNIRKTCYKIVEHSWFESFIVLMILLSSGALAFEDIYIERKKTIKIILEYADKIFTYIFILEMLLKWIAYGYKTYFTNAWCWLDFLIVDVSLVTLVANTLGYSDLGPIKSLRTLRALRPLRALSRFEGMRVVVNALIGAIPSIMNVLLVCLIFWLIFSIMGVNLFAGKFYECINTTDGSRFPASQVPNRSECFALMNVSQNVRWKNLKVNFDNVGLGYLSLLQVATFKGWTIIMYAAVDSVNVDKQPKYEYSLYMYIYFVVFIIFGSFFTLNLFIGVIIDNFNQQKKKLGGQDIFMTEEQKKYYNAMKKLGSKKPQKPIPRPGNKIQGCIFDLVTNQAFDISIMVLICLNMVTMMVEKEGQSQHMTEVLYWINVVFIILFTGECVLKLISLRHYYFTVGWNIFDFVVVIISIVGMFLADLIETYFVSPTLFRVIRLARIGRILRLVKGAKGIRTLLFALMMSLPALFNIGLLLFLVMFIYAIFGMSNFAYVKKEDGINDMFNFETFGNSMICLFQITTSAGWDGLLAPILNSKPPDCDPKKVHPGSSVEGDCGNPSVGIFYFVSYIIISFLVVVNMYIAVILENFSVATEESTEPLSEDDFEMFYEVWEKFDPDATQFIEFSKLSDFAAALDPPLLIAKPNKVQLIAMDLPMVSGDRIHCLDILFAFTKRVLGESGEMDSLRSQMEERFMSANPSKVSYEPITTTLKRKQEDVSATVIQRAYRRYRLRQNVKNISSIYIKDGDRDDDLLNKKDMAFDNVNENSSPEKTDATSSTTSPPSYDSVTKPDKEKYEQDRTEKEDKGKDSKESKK
# hNaV1.7, sequence (Q07699 19-218 partner): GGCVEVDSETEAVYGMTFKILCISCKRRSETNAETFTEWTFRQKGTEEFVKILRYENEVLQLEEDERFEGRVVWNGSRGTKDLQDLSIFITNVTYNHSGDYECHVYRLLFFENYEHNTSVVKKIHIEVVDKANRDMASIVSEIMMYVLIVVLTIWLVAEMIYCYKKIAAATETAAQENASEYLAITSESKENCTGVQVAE
# T1 sequence (Q9NY46 1-1951 isoform Q9NY46-4): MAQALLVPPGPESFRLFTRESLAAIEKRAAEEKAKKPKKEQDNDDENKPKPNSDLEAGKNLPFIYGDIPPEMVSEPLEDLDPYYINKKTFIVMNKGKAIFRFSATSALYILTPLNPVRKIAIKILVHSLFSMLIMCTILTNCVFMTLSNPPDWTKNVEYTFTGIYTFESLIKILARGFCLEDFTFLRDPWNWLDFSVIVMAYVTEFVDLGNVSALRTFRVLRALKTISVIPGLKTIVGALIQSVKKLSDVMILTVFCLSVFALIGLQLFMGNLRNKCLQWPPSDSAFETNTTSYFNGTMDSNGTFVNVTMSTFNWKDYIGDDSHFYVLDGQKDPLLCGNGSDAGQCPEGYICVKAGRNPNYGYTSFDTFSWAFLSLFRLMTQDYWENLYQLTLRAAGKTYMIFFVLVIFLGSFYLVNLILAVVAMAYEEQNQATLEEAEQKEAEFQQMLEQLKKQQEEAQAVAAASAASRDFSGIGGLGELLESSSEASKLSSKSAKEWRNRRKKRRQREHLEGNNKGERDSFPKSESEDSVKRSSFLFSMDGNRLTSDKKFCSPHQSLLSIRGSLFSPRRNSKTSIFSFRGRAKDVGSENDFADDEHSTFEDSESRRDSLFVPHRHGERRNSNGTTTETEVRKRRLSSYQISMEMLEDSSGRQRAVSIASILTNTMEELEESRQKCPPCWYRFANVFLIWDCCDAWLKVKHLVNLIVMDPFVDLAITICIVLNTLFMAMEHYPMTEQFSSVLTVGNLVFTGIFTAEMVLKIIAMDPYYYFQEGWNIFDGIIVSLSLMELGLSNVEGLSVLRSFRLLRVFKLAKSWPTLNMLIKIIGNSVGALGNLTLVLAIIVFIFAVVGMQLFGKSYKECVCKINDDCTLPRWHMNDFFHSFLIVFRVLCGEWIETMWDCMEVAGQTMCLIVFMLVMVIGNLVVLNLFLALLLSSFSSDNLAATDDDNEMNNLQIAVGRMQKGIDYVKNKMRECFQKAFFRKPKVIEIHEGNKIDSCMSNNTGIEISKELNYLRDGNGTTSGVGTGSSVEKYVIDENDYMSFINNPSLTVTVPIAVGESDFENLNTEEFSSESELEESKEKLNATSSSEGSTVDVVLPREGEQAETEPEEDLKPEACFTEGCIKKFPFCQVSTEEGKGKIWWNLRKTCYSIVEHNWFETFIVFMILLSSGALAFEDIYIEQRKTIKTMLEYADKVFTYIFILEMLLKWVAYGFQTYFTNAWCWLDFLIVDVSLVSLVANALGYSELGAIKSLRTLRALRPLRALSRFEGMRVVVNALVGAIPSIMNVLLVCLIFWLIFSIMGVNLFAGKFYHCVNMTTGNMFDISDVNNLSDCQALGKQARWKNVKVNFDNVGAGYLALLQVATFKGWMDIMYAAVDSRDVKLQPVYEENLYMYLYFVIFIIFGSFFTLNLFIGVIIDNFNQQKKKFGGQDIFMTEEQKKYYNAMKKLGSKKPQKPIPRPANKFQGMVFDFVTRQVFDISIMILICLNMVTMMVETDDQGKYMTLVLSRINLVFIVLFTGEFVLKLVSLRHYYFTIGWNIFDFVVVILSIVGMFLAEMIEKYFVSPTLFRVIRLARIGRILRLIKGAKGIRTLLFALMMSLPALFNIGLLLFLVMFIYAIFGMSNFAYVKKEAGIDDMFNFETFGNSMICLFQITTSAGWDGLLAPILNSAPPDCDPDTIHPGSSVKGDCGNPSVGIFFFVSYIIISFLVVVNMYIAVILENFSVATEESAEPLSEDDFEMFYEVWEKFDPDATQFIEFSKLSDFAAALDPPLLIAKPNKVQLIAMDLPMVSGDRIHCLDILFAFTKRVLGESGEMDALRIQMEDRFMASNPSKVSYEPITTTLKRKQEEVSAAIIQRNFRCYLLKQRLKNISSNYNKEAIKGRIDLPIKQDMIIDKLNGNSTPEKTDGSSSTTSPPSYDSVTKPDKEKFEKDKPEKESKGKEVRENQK
# T1 sequence (Q07699 19-218 partner): as the sequence (Q07699 19-218 partner) above
# T1 sequence (O60939 30-215 partner): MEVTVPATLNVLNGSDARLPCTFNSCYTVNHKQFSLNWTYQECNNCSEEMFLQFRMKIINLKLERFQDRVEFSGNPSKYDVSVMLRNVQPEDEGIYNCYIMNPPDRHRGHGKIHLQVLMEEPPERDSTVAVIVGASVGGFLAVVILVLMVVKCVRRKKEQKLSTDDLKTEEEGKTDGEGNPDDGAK
SMILES,maximal reduction of glucagon secretion as compared to the vehicle control (rat pancreatic islets; at 30 μM),reduction of veratridine-induced glucagon secretion (human pancreatic islets; at 30 μM),insulin staining per islet (ZDF diabetic rats; 10 weeks treatment),insulin/glucagon ratio (ZDF diabetic rats; 10 weeks treatment),islet area/pancreas area (ZDF diabetic rats; 10 weeks treatment),staining of glucagon per islet versus vehicle (ZDF diabetic rats; 10 weeks treatment),water consumption (surrogate marker for diabetes) (ZDF diabetic rats),HbA1c levels versus vehicle group (ZDF diabetic rats),fasting plasma glucose levels versus vehicle (ZDF diabetic rats),hNav1.3 VDB % Inhibition (hNaV1.3),hNav1.7 VDB % Inhibition (hNaV1.7),maximal reduction of glucagon secretion as compared to the vehicle control (rat pancreatic islets; at 3 μM),reduction of veratridine-induced glucagon secretion (human pancreatic islets; at 3 μM)
"COc1ccccc1OCC(O)CN1CCN(CC(=O)Nc2c(C)cccc2C)CC1 (racemic) [Ranolazine, ±-N-(2,6-dimethylphenyl)-4-[2-hydroxy-3-(2-methoxyphenoxy)-propyl]-1-piperazineacetamide]",53±6%,36±9%,91.2±1.5%,12.1±2.4,0.36±0.1%,significantly less,significantly prevented the increase,significantly lower,significantly lower,11.21%,17.23%,,
"FC(F)(F)Oc1ccc(-c2ccc3nnc(C(F)(F)F)n3c2)cc1 [Compound A, 6-(4-(trifluoromethoxy)phenyl)-3-(trifluoromethyl)-[1,2,4]triazolo[4,3-α]pyridine]",,,90.0±2.8%,,0.51±0.16%,significantly less,significantly prevented the increase,significantly lower,significantly lower,65.42%,87.17%,53±8%,58±7%
